Our source for the IC50 values is patent US20250092031A1, “RIPK3 INHIBITORS AND METHODS OF USE” (Momentum Therapeutics, Inc., priority 2023, published 2025).

Structures are written as SMILES.

By IC50 is commonly meant the concentration needed to halve the response being measured.

The assay concerns Murine L929 cells. Kind of assay: Necroptosis inhibition assay in L929 cells (mTNFα + zVAD, Sytox Green). The class given is cell-based. To be noted: Mus musculus, 10 ng/ml mTNFα and 20 μM zVAD, 6 hours, Sytox Green fluorescence. On the procedure: Murine L929 cells (ATCC-CCL-1) were seeded at 10,000 cells/well in a 96-well plate. Cells were treated 48 hours after seeding with 10 ng/ml mTNFα (R&D Systems) and 20 μM zVAD (ChemShuttle) in the presence of different concentrations of compounds ranging from […] to 0.01 μM. Cells treated with 0.1% DMSO or cells treated with TNFα+zVAD were used as control and vehicle respectively.
Assay plates containing cells were incubated for 6 hours at 37° C. and 5% CO2. Necroptosis was assessed using Sytox Green Nucleic Acid Stain (Invitrogen). After incubation, 100 μL of Sytox dye at 2 μM (2×) diluted in HBSS 1× was added in each well and incubated for 15 min at room temperature. Fluorescence (500ex/530em) was recorded using the Cytation 5 microplate reader (Biotek).
Percentage of necroptosis inhibition was calculated as the percent compared to control and vehicle conditions which correspond to 100% and 0% respectively. The half-maximum necroptosis inhibition (IC50) levels were calculated using GraphPad Prism software and are shown in Table 3 (NT represents compound not tested).
As for `COc1ccc(-c2ccc3c(Nc4ccc(C5CCN(C)CC5)c(F)c4)ccnc3c2)cc1` [Compound 2, N-(3-fluoro-4-(1-methylpiperidin-4-yl)phenyl)-7-(4-methoxyphenyl)quinolin-4-amine], the IC50 is greater than 10 µM.

`CN1CCC(c2ccc(Nc3ccnc4cc(-c5ccccc5F)ccc34)nc2)CC1` [Compound 3, 7-(2-fluorophenyl)-N-(5-(1-methylpiperidin-4-yl)pyridin-2-yl)quinolin-4-amine]: the IC50 is greater than 10 µM.

With `CN1CCC(c2ccc(Nc3ccc4nccc(Nc5ccc6scnc6c5)c4c3)cc2F)CC1` [Compound 4, N4-(benzo[d]thiazol-5-yl)-N6-(3-fluoro-4-(1-methylpiperidin-4-yl)phenyl)quinoline-4,6-diamine], the IC50 is greater than 10 µM.

Take `CN1CCC(c2ccc(Nc3ccnc4cc(-c5ccccc5F)ccc34)cc2F)CC1` [Compound 5, N-(3-fluoro-4-(1-methylpiperidin-4-yl)phenyl)-7-(2-fluorophenyl)quinolin-4-amine]: the IC50 is greater than 10 µM.

With `CN1CCC(c2ccc(Nc3ccnc4cc(-c5ccccn5)ccc34)cc2F)CC1` [Compound 6, N-(3-fluoro-4-(1-methylpiperidin-4-yl)phenyl)-7-(pyridin-2-yl)quinolin-4-amine], the half-inhibitory concentration (IC50) was greater than 10 µM.

For `COc1ccc(-c2ccc3c(Nc4ccc(C5CCN(C)CC5)cn4)ccnc3c2)cc1` [Compound 7, 7-(4-methoxyphenyl)-N-(5-(1-methylpiperidin-4-yl)pyridin-2-yl)quinolin-4-amine], the IC50 was greater than 10 µM.

`CN1CCC(c2ccc(Nc3ccnc4cc(-c5ccccn5)ccc34)nc2)CC1` [Compound 8, N-(5-(1-methylpiperidin-4-yl)pyridin-2-yl)-7-(pyridin-2-yl)quinolin-4-amine]: the IC50 was greater than 10 µM.

Turning to `CN1CCC(c2ccc(Nc3ccc4nccc(Nc5ccc6scnc6c5)c4c3)nc2)CC1` [Compound 9, N4-(benzo[d]thiazol-5-yl)-N6-(5-(1-methylpiperidin-4-yl)pyridin-2-yl)quinoline-4,6-diamine], the IC50 was greater than 10 µM.

With `Cc1ccc(Oc2ccnc3cc(-c4ccc(CN5CCN(C)CC5)c(F)c4)ccc23)cc1` [Compound 10, 7-(3-fluoro-4-((4-methylpiperazin-1-yl)methyl)phenyl)-4-(p-tolyloxy)quinoline], the 50% inhibitory concentration (IC50) was greater than 10 µM.

`c1cc(Nc2ccc3scnc3c2)c2cc(-c3ccc(N4CCOCC4)cc3)ccc2n1` [Compound 18, N-(6-(4-morpholinophenyl)quinolin-4-yl)benzo[d]thiazol-5-amine]: the IC50 is less than 10 µM.

In the case of `COc1ccc(Nc2ccnc3ccc(-c4ccc(N5CCN(C)CC5)cc4)cc23)cc1OC` [Compound 19, N-(3,4-dimethoxyphenyl)-6-(4-(4-methylpiperazin-1-yl)phenyl)quinolin-4-amine], the IC50 was greater than 10 µM.

In the case of `CN1CCN(c2ccc(-c3ccc4nccc(Nc5ccc(Cl)c(Cl)c5)c4c3)cc2)CC1` [Compound 20, N-(3,4-dichlorophenyl)-6-(4-(4-methylpiperazin-1-yl)phenyl)quinolin-4-amine], the IC50 was less than 10 µM.

Turning to `CN1CCN(c2ccc(-c3ccc4nccc(Nc5ccc6scnc6c5)c4c3)cn2)CC1` [Compound 24, N-(6-(6-(4-methylpiperazin-1-yl)pyridin-3-yl)quinolin-4-yl)benzo[d]thiazol-5-amine], the IC50 is less than 10 µM.

Take `c1cc(Nc2ccc3scnc3c2)c2cc(-c3ccc(N4CCCCC4)nc3)ccc2n1` [Compound 25, N-(6-(6-(piperidin-1-yl)pyridin-3-yl)quinolin-4-yl)benzo[d]thiazol-5-amine]: the IC50 was greater than 10 µM.

For the molecule `Nc1nc2cc(Nc3ccnc4ccc(-c5ccc(CN6CCCC6)cc5F)cc34)ccc2s1` [Compound 26, N5-(6-(2-fluoro-4-(pyrrolidin-1-ylmethyl)phenyl)quinolin-4-yl)benzo[d]thiazole-2,5-diamine], the 50% inhibitory concentration (IC50) was greater than 10 µM.

As for `c1cc(Nc2ccc3scnc3c2)c2cc(-c3ccc(N4CCCC4)cc3)ccc2n1` [Compound 30, N-(6-(4-(pyrrolidin-1-yl)phenyl)quinolin-4-yl)benzo[d]thiazol-5-amine], the IC50 was greater than 10 µM.

`COc1ccc(Nc2ccnc3ccc(-c4ccc(CN5CCN(C)CC5)cc4F)cc23)cc1OC` [Compound 32, N-(3,4-dimethoxyphenyl)-6-(2-fluoro-4-((4-methylpiperazin-1-yl)methyl)phenyl)quinolin-4-amine]: the IC50 is greater than 10 µM.

On to `CN1CCN(Cc2ccc(-c3ccc4nccc(Nc5ccc(Cl)c(F)c5)c4c3)c(F)c2)CC1` [Compound 33, N-(4-chloro-3-fluorophenyl)-6-(2-fluoro-4-((4-methylpiperazin-1-yl)methyl)phenyl)quinolin-4-amine], for which the 50% inhibitory concentration (IC50) is less than 10 µM.

For the molecule `CC(C)(C)OC(=O)N1CCN(Cc2ccc(-c3ccc4nccc(Nc5ccc6scnc6c5)c4c3)c(F)c2)CC1` [Compound 38, tert-butyl 4-(4-(4-(benzo[d]thiazol-5-ylamino)quinolin-6-yl)-3-fluorobenzyl)piperazine-1-carboxylate], the IC50 was less than 10 µM.

Consider `N#Cc1cc(-c2ccc3nccc(Nc4ccc5scnc5c4)c3c2)ccc1N1CCCC1` [Compound 39, 5-(4-(benzo[d]thiazol-5-ylamino)quinolin-6-yl)-2-(pyrrolidin-1-yl)benzonitrile], for which the IC50 is greater than 10 µM.

With `Fc1cc(CN2CCC(C(F)(F)F)CC2)ccc1-c1ccc2nccc(Nc3ccc4scnc4c3)c2c1` [Compound 42, N-(6-(2-fluoro-4-((4-(trifluoromethyl)piperidin-1-yl)methyl)phenyl)quinolin-4-yl)benzo[d]thiazol-5-amine], the half-inhibitory concentration (IC50) is less than 10 µM.

For the molecule `c1cc(Nc2ccc3scnc3c2)c2cc(-c3ccc(OCCN4CCCCC4)cc3)ccc2n1` [Compound 44, N-(6-(4-(2-(piperidin-1-yl)ethoxy)phenyl)quinolin-4-yl)benzo[d]thiazol-5-amine], the half-inhibitory concentration (IC50) is less than 10 µM.

Regarding `Fc1ccc(CN2CCCCC2)cc1-c1ccc2nccc(Nc3ccc4scnc4c3)c2c1` [Compound 55, N-(6-(2-fluoro-5-(piperidin-1-ylmethyl)phenyl)quinolin-4-yl)benzo[d]thiazol-5-amine], the IC50 was less than 10 µM.

With `Fc1ccc(CN2CCCCC2)cc1-c1ccc2c(Nc3ccc4scnc4c3)ccnc2c1` [Compound 56, N-(7-(2-fluoro-5-(piperidin-1-ylmethyl)phenyl)quinolin-4-yl)benzo[d]thiazol-5-amine], the IC50 is greater than 10 µM.

On to `CC(C)(C)OC(=O)N1C2CCC1CN(Cc1ccc(-c3ccc4nccc(Nc5ccc6scnc6c5)c4c3)c(F)c1)C2` [Compound 57, tert-butyl 3-(4-(4-(benzo[d]thiazol-5-ylamino)quinolin-6-yl)-3-fluorobenzyl)-3,8-diazabicyclo[3.2.1]octane-8-carboxylate], for which the IC50 is greater than 10 µM.

As to `CC(C)(C)OC(=O)N1C2CCC1CN(Cc1ccc(-c3ccc4c(Nc5ccc6scnc6c5)ccnc4c3)c(F)c1)C2` [Compound 58, tert-butyl 3-(4-(4-(benzo[d]thiazol-5-ylamino)quinolin-7-yl)-3-fluorobenzyl)-3,8-diazabicyclo[3.2.1]octane-8-carboxylate], the IC50 is less than 10 µM.

As for `O=C(CO)N1CCC(c2ccc(-c3ccc4nccc(Nc5ccc6scnc6c5)c4c3)cc2)CC1` [Compound 239, 1-(4-(4-(4-(benzo[d]thiazol-5-ylamino)quinolin-6-yl)phenyl)piperidin-1-yl)-2-hydroxyethan-1-one], the IC50 is less than 1 µM.

`c1cc(Nc2ccc3scnc3c2)c2cc(-c3ccc(C4CCNCC4)cc3)ccc2n1` [Compound 240, N-(6-(4-(piperidin-4-yl)phenyl)quinolin-4-yl)benzo[d]thiazol-5-amine]: the IC50 was greater than 1 µM.

In the case of `O=C(c1ccc(-c2ccc3nccc(Nc4ccc5scnc5c4)c3c2)c(F)c1)N1CCCC1` [Compound 241, (4-(4-(benzo[d]thiazol-5-ylamino)quinolin-6-yl)-3-fluorophenyl)(pyrrolidin-1-yl)methanone], the IC50 amounted to 0.388 µM.

`O=C(c1ccc(-c2ccc3c(Nc4ccc5scnc5c4)ccnc3c2)c(F)c1)N1CCCC1` [Compound 242, (4-(4-(benzo[d]thiazol-5-ylamino)quinolin-7-yl)-3-fluorophenyl)(pyrrolidin-1-yl)methanone]: the IC50 is less than 1 µM.

As for `O=C(c1ccc(-c2ccc3nccc(Nc4ccc5scnc5c4)c3c2)c(F)c1)N1CCOCC1` [Compound 243, (4-(4-(benzo[d]thiazol-5-ylamino)quinolin-6-yl)-3-fluorophenyl)(morpholino)methanone], the IC50 was less than 1 µM.

In the case of `CN(C)C(=O)c1ccc(-c2ccc3nccc(Nc4ccc5scnc5c4)c3c2)c(F)c1` [Compound 245, 4-(4-(benzo[d]thiazol-5-ylamino)quinolin-6-yl)-3-fluoro-N,N-dimethylbenzamide], the half-inhibitory concentration (IC50) was less than 1 µM.

In the case of `CN(C)C(=O)c1ccc(-c2ccc3c(Nc4ccc5scnc5c4)ccnc3c2)c(F)c1` [Compound 246, 4-(4-(benzo[d]thiazol-5-ylamino)quinolin-7-yl)-3-fluoro-N,N-dimethylbenzamide], the IC50 is less than 1 µM.

Turning to `CC1CCCCN1C(=O)c1ccc(-c2ccc3nccc(Nc4ccc5scnc5c4)c3c2)c(F)c1` (centres unmarked) [Compound 247, (4-(4-(benzo[d]thiazol-5-ylamino)quinolin-6-yl)-3-fluorophenyl)(2-methylpiperidin-1-yl)methanone], the IC50 was greater than 1 µM.

As for `CC1CCCCN1C(=O)c1ccc(-c2ccc3c(Nc4ccc5scnc5c4)ccnc3c2)c(F)c1` (centres unmarked) [Compound 248, (4-(4-(benzo[d]thiazol-5-ylamino)quinolin-7-yl)-3-fluorophenyl)(2-methylpiperidin-1-yl)methanone], the IC50 was less than 1 µM.
